This note sets out measurements from patent US20240024266A1, “Therapeutic Agent or Prophylactic Agent for COVID-19” (priority 2020, published 2024).

The subject of one assay is SARS-CoV-2. Put plainly: Confirmation test of suppressing effect against SARS-CoV-2 proliferation (nucleocapsid Western blotting, VeroE6/TMPRSS2 cells). It is filed as cell-based. The conditions noted are these: 20 μM Pin1 inhibitor, VeroE6/TMPRSS2 cells, MOI 10, cell lysate 8 hours after infection, nucleocapsid band area vs no inhibitor. In general terms: Immunoblotting shows a protein as a band on a membrane.
`Nc1cc(NC(=O)C2c3ccccc3-c3ccccc32)cc(C(=O)OCc2ccccc2)c1` [H-755-2]: the “Inhibition Rate” value is reported as 75%.

Staying with this assay, now noted: Severe acute respiratory syndrome coronavirus 2, VeroE6/TMPRSS2, 8 h, 20 μM Pin1 inhibitor, VeroE6/TMPRSS2 cells, MOI 10, cell lysate 8 hours after infection, nucleocapsid band area vs no inhibitor; read-out: Inhibition Rate.
Consider `Nc1cc(NC(=O)N(c2ccccc2)c2ccccc2)cc(C(=O)O)c1` [H-727], for which the inhibition at 20 µM amounted to 50%.
Regarding `COC(=O)/C(=C/c1ccc2ccccc2c1)CC(=O)N1CCCc2ccccc21` [H-739], the inhibition at 20 µM came out at 51%.
On to `O=C(O)/C(=C/c1ccc2ccccc2c1)CC(=O)N1CCc2ccccc2C1` [H-742], for which the inhibition at 20 µM was determined as 57%.
On to `O=C(O)/C(=C/c1ccc2ccccc2c1)CC(=O)N1CCCc2ccccc21` [H-743], for which the inhibition at 20 µM is 59%.
`Nc1cc(NC(=O)C2c3ccccc3-c3ccccc32)cc(C(=O)OCc2ccccc2)c1` [H-755]: the inhibition at 20 µM came out at 78%.
For `COC(=O)c1cc(NC(=O)COc2ccccn2)cc(NC(=O)n2c3ccccc3c3ccccc32)c1` [H-762], the inhibition at 20 µM stood at 83%.
As for `O=C(COc1ccccn1)Nc1cc(NC(=O)n2c3ccccc3c3ccccc32)cc(C(=O)O)c1` [H-763], the inhibition at 20 µM is 97%.
Same read-out and setting: the same measure for `O=C(Nc1ccc(OCc2ccc3ccccc3c2)cc1C(=O)O)c1ccc2c(c1)OCCO2` [H-787]: 97%; for `O=C(Nc1ccc(OCc2ccccc2)cc1C(=O)O)c1ccc2c(c1)OCCO2` [H-800]: 91%.
Same read-out and setting: the same measure for `COC(=O)c1cc(N)cc(NC(=O)CN(c2ccccc2)c2ccccc2)c1` [H-816]: 63%.
For `Nc1cc(NC(=O)CN(c2ccccc2)c2ccccc2)cc(C(=O)O)c1` [H-817], the inhibition at 20 µM worked out at 61%.
Regarding `O=C(CN(c1ccccc1)c1ccccc1)Nc1cc(NC(=O)c2ccc3ccccc3c2)cc(C(=O)O)c1` [H-819], the inhibition at 20 µM came to 95%.
Still for that read-out and setting: the figure for `O=C(CN(c1ccccc1)c1ccccc1)Nc1cc(NC(=O)c2ccc3ccccc3n2)cc(C(=O)O)c1` [H-821] is 95%; for `COC(=O)c1cc(OCc2ccncc2)ccc1NC(=O)c1cccnc1` [H-832] it is 65%.
Consider `O=C(Cn1c2ccccc2c2ccccc21)Nc1ccc(OCc2ccccc2)cc1C(=O)O` [H-835], for which the inhibition at 20 µM came out at 99%.
Same read-out and setting: the same measure for `O=C(Cc1cccc2ccccc12)Nc1ccc(OCc2ccccc2)cc1C(=O)O` [H-839]: 83%; for `COC(=O)[C@@H](Cc1ccc2ccccc2c1)NC(=O)c1ccc(CNC(=O)OC(C)(C)C)cc1` [H-848]: 53%; for `CC(C)(C)OC(=O)NCc1ccc(C(=O)N[C@H](Cc2ccc3ccccc3c2)C(=O)O)cc1` [H-849]: 50%.
On the same count and under the same terms, the same measure for `NCc1ccc(C(=O)N[C@H](Cc2ccc3ccccc3c2)C(=O)O)cc1` [H-851]: 59%; for `O=C(O)[C@@H](Cc1ccc2ccccc2c1)NC(=O)n1c2ccccc2c2ccccc21` [H-853]: 99%; for `COC(=O)c1cc(NC(=O)CC2c3ccccc3-c3ccccc32)cc(NC(=O)c2ccc3ccccc3c2)c1` [H-857]: 55%.
In the case of `COC(=O)c1cc(NC(=O)CC2c3ccccc3-c3ccccc32)cc(NC(=O)c2ccc3c(c2)OCCO3)c1` [H-859], the inhibition at 20 µM was 89%.
On the same count and under the same terms, the same measure for `COC(=O)c1cc(NC(=O)c2ccc(CN)cc2)cc(NC(=O)n2c3ccccc3c3ccccc32)c1` [H-870]: 97%; for `NCc1ccc(C(=O)Nc2cc(NC(=O)n3c4ccccc4c4ccccc43)cc(C(=O)O)c2)cc1` [H-871]: 61%; for `COC(=O)c1cc(NC(=O)OC(C)(C)C)cc(NC(=O)n2ccc3ccccc32)c1` [H-872]: 78%.
Consider `CC(C)(C)OC(=O)Nc1cc(NC(=O)n2ccc3ccccc32)cc(C(=O)O)c1` [H-873], for which the inhibition at 20 µM amounted to 67%.
Take `O=C(O)c1cc(NC(=O)c2ccc3c(c2)OCCO3)cc(NC(=O)n2ccc3ccccc32)c1` [H-876]: the inhibition at 20 µM amounted to 69%.
`O=C(O)c1cc(NC(=O)c2ccc3ccccc3c2)cc(NC(=O)n2ccc3ccccc32)c1` [H-878]: the inhibition at 20 µM was 56%.

What is called inhibition is the relative decrease from the control value, in per cent.
